Laboratory results: patent US20070207454A1, “Novel method to identify targets for antibiotic development” (priority 2001, published 2007)

Tests used:
C1 lysin = C1 lysin (Streptococcus phage C1, UniProt Q7Y3F3); assay: Competition experiments with monosaccharides or cell wall carbohydrate extracts; format: cell-based, C1 bacteriophage; conditions: 20 mM monosaccharide
Protocol: FIG. 7 is a bar graph illustrating lysin pretreated with […] Sugar (GlcNAc for A, L-Rhamnose for AV, or GalNAc for C), or extracted Group A carbohydrate (10 mg/ml). The black marker indicates buffer pretreatment; the gray marker indicates sugar pretreatment; and the white marker indicates Group A carbohydrate pretreatment.
Competition experiments. The three groups of cells were pretreated with monosaccharide or buffer containing 20 mM monosaccharide (GlcNAc for A, L-rhamnose for AV, or GalNAc for C), or extracted Group A carbohydrate (10 mg/ml) prior to exposure to the C1 lysin.

PlyG lysin = format: cell-based, γ phage of Bacillus anthracis; conditions: for blocking of PlyG's killing ability: bacillus RSVF, competition assay
RSVF1 = conditions: cited from earlier work

Chain of C1 lysin (Q7Y3F3 whole entry, looked up): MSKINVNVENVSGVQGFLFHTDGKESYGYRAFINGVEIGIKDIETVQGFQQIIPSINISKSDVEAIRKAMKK

CC(=O)N[C@H]1C(O)O[C@H](CO)[C@H](O)[C@@H]1O (some centres unmarked) [GalNAc, N-acetyl-galactosamine]
effect of competitor on lysin activity (C1 lysin; group C cells): no decrease

C[C@H](O)[C@H](O)[C@@H](O)[C@@H](O)C=O [L-Rhamnose]
effect of competitor on lysin activity (C1 lysin; AV cells): no decrease

CC(=O)N[C@H]1C(O)O[C@H](CO)[C@@H](O)[C@@H]1O (some centres unmarked) [N-acetylglucosamine]
concentration that could block the lethal action of PlyG (PlyG lysin; exponential phase RSVF1, 15 min at 37° C., CFU ml^-1, FIG. 10): ≤ 0.5 mM
effect of competitor on lysin activity (C1 lysin; group A cells): no decrease

CC(=O)N[C@@H]1C(O)O[C@H](CO)[C@@H](O)[C@@H]1O (some centres unmarked) [N-acetylmannosamine]
blocking of PlyG's killing ability (PlyG lysin): Neither galactose nor N-acetylmannosamine blocked

O=C[C@H](O)[C@@H](O)[C@@H](O)[C@H](O)CO [galactose]
blocking of PlyG's killing ability (PlyG lysin): Neither galactose nor N-acetylmannosamine blocked

CO[C@@H]1[C@@H](OC(N)=O)[C@@H](O)[C@H](Oc2ccc3c(O)c(NC(=O)c4ccc(O)c(CC=C(C)C)c4)c(=O)oc3c2C)OC1(C)C [novobiocin]
increase in resistance after EMS mutagenesis (RSVF1): 1,000 fold

[H]/N=C(/N)N[C@H]1[C@H](O)[C@@H](O)[C@H](O[C@@H]2O[C@@H](C)[C@](O)(C=O)[C@H]2O[C@@H]2O[C@@H](CO)[C@H](O)[C@@H](O)[C@@H]2NC)[C@@H](N/C(N)=N\[H])[C@@H]1O [streptomycin]
increase in resistance after EMS mutagenesis (RSVF1): 10,000 fold
